Patent US20090131508A1, “Use of 2-Oxo-1-Pyrrolidone Derivatives for the Preparation of a Drug” (UCB PHARMA, S.A., priority 2005, published 2009)
Read-outs that look alike come from different tables or passages of the source.

Key:
DMCM-induced seizures = assay: threshold for DMCM-induced seizures in mice; type: in vivo, male NMRI mice; settings: for Clonic convulsion DMCM threshold dose / First myoclonic jerks DMCM threshold dose: mean ± S.D.
Protocol: The effect of Brivaracetam on the threshold for DMCM-induced seizures is evaluated in male NMRI mice (25-35 g; N=10 per group). The threshold for induction of myoclonic jerks and clonic convulsions in all four extremities is determined by infusing a concentration of 0.5 mg/ml DMCM into the tail vein of unrestrained freely moving mice at a rate of 0.25 ml/min with an infusion pump and a maximum duration of infusion of 2 min. Saline or different doses of Brivaracetam are administered 30 min before DMCM infusion.

[1] = plasma levels of brivaracetam in the PPR study; type: in vivo; settings: human
Protocol: The aim of the placebo-controlled, single blind, multi-centre study is to explore the photoparoxysmal EEG (Electroencephalogram) response (PPR) in photosensitive epileptic subjects after one single oral dose (10, 20, 40 and 80 mg) of brivaracetam (BRV).
In the study, nineteen Caucasian subjects with photosensitive epilepsy (15 females, 4 males) with stable PPR in at least one eye condition (eyes open, eyes closed, eye closure) are enrolled. During a 3-day period, subjects underwent standardized intermittent photic stimulation (IPS) at different frequencies to define the standard photosensitivity range (SPR) in frequency steps per subject at fixed time points over the day: predose (−0.5 h) and postdose (1, 2, 4, 6, 8, 24, 28, 32, 48, and 72 h). After the placebo baseline day (day 1), single oral doses of BRV are given, starting at 80 mg, with subsequent lowering or increasing of the dose depending on the results per 4 subjects.
Median time to first response is 0.5 hours for all doses, and median duration of response is approximately 28 hours after 10, 20, or 40 mg BRV. The median duration is longer after 80 mg BRV (59.5 h). Time to maximal reduction in SPR is dose related: 1.5, 1.0, 1.0, and 0.5 hours, respectively, for 10, 20, 40, and 80 mg BRV. Plasma levels of brivaracetam (BRV) reach a peak at approximately 2.0 hours. T1/2 is about 8.5 hours. Effect of BRV is still frequently observable with BRV plasma levels below the lower level of quantification.

[2] = tested on: maximal electroshock seizures (MES); assay: maximal electroshock seizures (MES) in mice; type: in vivo, male NMRI mice; settings: i.p. -30 min, 95% confidence interval in parentheses
Protocol: (§1) The effect of Brivaracetam against maximal electroshock seizures (MES) and pentylenetetrazol (PTZ) seizures is evaluated in male NMRI mice (20-30 g; N=10 per group). MES is induced through corneal electrodes delivering a current of 50 mA for a duration 0.2 s inducing tonic hind limb extension in 100% of saline-treated animals.
(§2) PTZ is administered at a dose of 89 mg/kg s.c. which represents a dose inducing clonic convulsions of all four extremities in 97% of saline-treated animals. The mice are pre-treated with either saline or different doses of Brivaracetam (i.p. adm., −30 min.) and the proportion of mice protected against seizures is recorded.

[3] = tested on: pentylenetetrazol (PTZ) seizures; assay: pentylenetetrazol (PTZ) seizures in mice; type: in vivo, male NMRI mice; settings: PTZ 89 mg/kg s.c., i.p. -30 min, 95% confidence interval in parentheses
Protocol: as §1, §2

CCC[C@@H]1CC(=O)N([C@@H](CC)C(N)=O)C1 [Brivaracetam, (2S)-2-[(4R)-2-oxo-4-propylpyrrolidinyl]butanamide]
Clonic convulsion DMCM threshold, change vs control (DMCM-induced seizures; Brivaracetam 2.1 mg/kg IP): +46% | First myoclonic jerks DMCM threshold, change vs control (DMCM-induced seizures; Brivaracetam 2.1 mg/kg IP): +6% | Clonic convulsion DMCM threshold dose (DMCM-induced seizures; Brivaracetam 2.1 mg/kg IP): 3.34 ± 0.93 mg/kg | First myoclonic jerks DMCM threshold dose (DMCM-induced seizures; Brivaracetam 2.1 mg/kg IP): 1.05 ± 0.14 mg/kg | Clonic convulsion DMCM threshold, change vs control (DMCM-induced seizures; Brivaracetam 6.8 mg/kg IP): +104% | First myoclonic jerks DMCM threshold, change vs control (DMCM-induced seizures; Brivaracetam 6.8 mg/kg IP): +11% | Clonic convulsion DMCM threshold dose (DMCM-induced seizures; Brivaracetam 6.8 mg/kg IP): 4.68 ± 2.21 mg/kg | First myoclonic jerks DMCM threshold dose (DMCM-induced seizures; Brivaracetam 6.8 mg/kg IP): 1.10 ± 0.16 mg/kg | Clonic convulsion DMCM threshold, change vs control (DMCM-induced seizures; Brivaracetam 21.2 mg/kg IP): +183% | First myoclonic jerks DMCM threshold, change vs control (DMCM-induced seizures; Brivaracetam 21.2 mg/kg IP): +26% | Clonic convulsion DMCM threshold dose (DMCM-induced seizures; Brivaracetam 21.2 mg/kg IP): 6.47 ± 2.82 mg/kg | First myoclonic jerks DMCM threshold dose (DMCM-induced seizures; Brivaracetam 21.2 mg/kg IP): 1.25 ± 0.14 mg/kg | Clonic convulsion DMCM threshold, change vs control (DMCM-induced seizures; Brivaracetam 67.9 mg/kg IP): +182% | First myoclonic jerks DMCM threshold, change vs control (DMCM-induced seizures; Brivaracetam 67.9 mg/kg IP): +32% | Clonic convulsion DMCM threshold dose (DMCM-induced seizures; Brivaracetam 67.9 mg/kg IP): 6.46 ± 3.16 mg/kg | First myoclonic jerks DMCM threshold dose (DMCM-induced seizures; Brivaracetam 67.9 mg/kg IP): 1.31 ± 0.17 mg/kg | Clonic convulsion DMCM threshold, change vs control (DMCM-induced seizures; Brivaracetam 212.3 mg/kg IP): +213% | First myoclonic jerks DMCM threshold, change vs control (DMCM-induced seizures; Brivaracetam 212.3 mg/kg IP): +36% | Clonic convulsion DMCM threshold dose (DMCM-induced seizures; Brivaracetam 212.3 mg/kg IP): 7.16 ± 2.98 mg/kg | First myoclonic jerks DMCM threshold dose (DMCM-induced seizures; Brivaracetam 212.3 mg/kg IP): 1.35 ± 0.17 mg/kg | half-life ([1]; both sexes, plasma, single oral dose, read-out: T1/2 (converted)): ~8.5 h | half-life ([1]; in vivo, stated as basis of expected effect duration, read-out: half-life of the compound (converted)): ~7.7 h | Time of peak plasma levels ([1]; single oral dose): approximately 2.0 hours | Protective effect ED50 value, tonic hind limb extension [2]: 113 (89-136) mg/kg i.p. | Protective effect ED50 value, clonic convulsions [3]: 30 (10-87) mg/kg i.p.
